Results from PubChem BioAssay AID256 (DTP/NCI, 2004).
Values joined by “and” are separate entries in the source; they are usually repeats but may differ in a detail not shown here. Identical values can stand only once. Toxic doses and inconclusive results are not listed. How the source made its calls: active means survival T/C of 150% or more; inactive means T/C below 125% in these data.

Test system: CD2F1 mice, L1210 leukemia ip, survival T/C
Test: NCI In Vivo Anticancer Drug Screen. Data for tumor model L1210 Leukemia (intraperitoneal) in CD2F1 (CDF1) mice
Settings: higher = longer survival
Procedure, shortened: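 Mice carrying a transplanted tumor received test compound or vehicle alone. The value is the measurement in the treated group divided by that in the vehicle-treated control group.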

[1] = endpoint: mean survival time, dose: 100.0 mg/kg/injection, schedule: Q04DX003 (ip), vehicle: saline with Tween-80
[2] = endpoint: mean survival time, dose: 100.0 mg/kg/injection, schedule: Q04DX002 (ip), vehicle: saline with Tween-80
[3] = endpoint: mean survival time, dose: 200.0 mg/kg/injection, schedule: Q04DX002 (ip), vehicle: saline with Tween-80
[4] = endpoint: mean survival time, dose: 400.0 mg/kg/injection, schedule: Q04DX002 (ip), vehicle: saline with Tween-80
[5] = endpoint: mean survival time, dose: 100.0 mg/kg/injection, schedule: Q01DX009 (ip), vehicle: saline with Tween-80
[6] = endpoint: mean survival time, dose: 200.0 mg/kg/injection, schedule: Q01DX009 (ip), vehicle: saline with Tween-80
[7] = endpoint: mean survival time, dose: 400.0 mg/kg/injection, schedule: Q01DX009 (ip), vehicle: saline with Tween-80
[8] = endpoint: mean survival time, dose: 200.0 mg/kg/injection, schedule: Q04DX003 (ip), vehicle: saline with Tween-80
[9] = endpoint: mean survival time, dose: 400.0 mg/kg/injection, schedule: Q04DX003 (ip), vehicle: saline with Tween-80

Measured: T/C

CC(=O)OCCN1CCN(CC/C=C2\c3ccccc3Sc3ccc(Cl)cc32)CC1
inactive: endpoint: mean survival time, dose: 3.13 mg/kg/injection, schedule: Q01DX009 (ip), vehicle: saline 100 % of control | endpoint: mean survival time, dose: 6.25 mg/kg/injection, schedule: Q01DX009 (ip), vehicle: saline 116 % of control and 105 % of control | endpoint: mean survival time, dose: 6.25 mg/kg/injection, schedule: Q04DX003 (ip), vehicle: saline 98 % of control | endpoint: mean survival time, dose: 12.5 mg/kg/injection, schedule: Q01DX009 (ip), vehicle: saline 117 % of control and 123 % of control | endpoint: mean survival time, dose: 12.5 mg/kg/injection, schedule: Q04DX003 (ip), vehicle: saline 89 % of control | endpoint: mean survival time, dose: 25.0 mg/kg/injection, schedule: Q01DX009 (ip), vehicle: saline 117 % of control | endpoint: mean survival time, dose: 25.0 mg/kg/injection, schedule: Q04DX003 (ip), vehicle: saline 98 % of control and 111 % of control | endpoint: mean survival time, dose: 50.0 mg/kg/injection, schedule: Q04DX003 (ip), vehicle: saline 101 % of control

C[PH+](C)C.C[PH+](C)C.[Au]
inactive: endpoint: median survival time, dose: 0.62 mg/kg/injection, schedule: Q01DX009 (ip), vehicle: saline 101 % of control | endpoint: median survival time, dose: 1.25 mg/kg/injection, schedule: Q01DX009 (ip), vehicle: saline 101 % of control | endpoint: median survival time, dose: 2.5 mg/kg/injection, schedule: Q01DX009 (ip), vehicle: saline 101 % of control | endpoint: median survival time, dose: 5.0 mg/kg/injection, schedule: Q01DX009 (ip), vehicle: saline 101 % of control | endpoint: median survival time, dose: 10.0 mg/kg/injection, schedule: Q01DX009 (ip), vehicle: saline 101 % of control

OC(c1ccccc1)c1ccccc1
inactive: endpoint: mean survival time, dose: 100.0 mg/kg/injection, schedule: Q01DX009 (ip), vehicle: saline 91 % of control | endpoint: mean survival time, dose: 200.0 mg/kg/injection, schedule: Q01DX009 (ip), vehicle: saline 91 % of control | endpoint: mean survival time, dose: 400.0 mg/kg/injection, schedule: Q01DX009 (ip), vehicle: saline 91 % of control

Cc1ccc(C2=C(O)C(=O)C(c3ccc(C)cc3)=C(O)C2=O)cc1
inactive: endpoint: mean survival time, dose: 75.0 mg/kg/injection, schedule: Q01DX001 (ip), vehicle: other 105 % of control | endpoint: mean survival time, dose: 150.0 mg/kg/injection, schedule: Q01DX001 (ip), vehicle: other 102 % of control

Nc1nc(-c2ccccc2)cs1
inactive: [1] 105 % of control

Cc1ccc(S(=O)(=O)OCC2OCOC(COS(=O)(=O)c3ccc(C)cc3)C(OS(=O)(=O)c3ccc(C)cc3)C2OS(=O)(=O)c2ccc(C)cc2)cc1 (stereo not given)
inactive: [2] 88 % of control | [3] 100 % of control | [4] 107 % of control

CC(=O)OCC1OC(OC(C)=O)C(NC(=O)N(CCSCCCl)N=O)C(OC(C)=O)C1OC(C)=O (stereo not given)
inactive: endpoint: mean survival time, dose: 0.78 mg/kg/injection, schedule: Q01DX001 (ip), vehicle: water 96 % of control | endpoint: mean survival time, dose: 1.56 mg/kg/injection, schedule: Q01DX001 (ip), vehicle: water 102 % of control | endpoint: mean survival time, dose: 3.12 mg/kg/injection, schedule: Q01DX001 (ip), vehicle: water 106 % of control | endpoint: mean survival time, dose: 6.25 mg/kg/injection, schedule: Q01DX001 (ip), vehicle: distilled water + Tween-80 106 % of control | endpoint: mean survival time, dose: 6.25 mg/kg/injection, schedule: Q01DX001 (ip), vehicle: water 106 % of control

CCN(CC)CCN1CC2CCCCC2C1 (stereo not given)
inactive: endpoint: mean survival time, dose: 25.0 mg/kg/injection, schedule: Q01DX009 (ip), vehicle: saline with Tween-80 100 % of control | endpoint: mean survival time, dose: 50.0 mg/kg/injection, schedule: Q01DX009 (ip), vehicle: saline with Tween-80 100 % of control | [5] 98 % of control and 102 % of control

CC1CCC(C(O)(C(=O)c2ccccc2)c2ccccc2)C(=O)C1 (stereo not given)
inactive: [5] 100 % of control | [6] 98 % of control | [7] 98 % of control

C1=CC2c3ccccc3C1C1C=CC21 (stereo not given)
inactive: [5] 95 % of control | [1] 91 % of control | [6] 108 % of control | [8] 93 % of control | [7] 93 % of control | [9] 93 % of control

CCNC(=O)C(C)Br (stereo not given)
inactive: endpoint: mean survival time, dose: 100.0 mg/kg/injection, schedule: Q01DX001 (ip), vehicle: saline 97 % of control | endpoint: mean survival time, dose: 200.0 mg/kg/injection, schedule: Q01DX001 (ip), vehicle: saline 106 % of control

CO/N=C(/c1ccccc1)c1cc[n+](C)cc1
inactive: endpoint: mean survival time, dose: 37.5 mg/kg/injection, schedule: Q04DX003 (ip), vehicle: saline 100 % of control | endpoint: mean survival time, dose: 75.0 mg/kg/injection, schedule: Q01DX001 (ip), vehicle: saline 95 % of control | endpoint: mean survival time, dose: 75.0 mg/kg/injection, schedule: Q04DX003 (ip), vehicle: saline 96 % of control | endpoint: mean survival time, dose: 150.0 mg/kg/injection, schedule: Q01DX001 (ip), vehicle: saline 100 % of control

Nc1c[nH]c(=O)[nH]c1=O
inactive: [2] 101 % of control | [3] 109 % of control | [4] 109 % of control

CC(=O)OCCOCCOCc1ccccc1
inactive: endpoint: mean survival time, dose: 100.0 mg/kg/injection, schedule: Q01DX001 (ip), vehicle: other 96 % of control | endpoint: mean survival time, dose: 200.0 mg/kg/injection, schedule: Q01DX001 (ip), vehicle: other 102 % of control | endpoint: mean survival time, dose: 400.0 mg/kg/injection, schedule: Q01DX001 (ip), vehicle: other 98 % of control

CC(C)(O)C(=O)N/N=C/c1ccc(Cl)cc1
inactive: [5] 90 % of control | [6] 90 % of control

[Cl][Pt+2][Cl].[NH-]C(C(=O)OCc1ccccc1)c1ccccc1.[NH-]C(C(=O)OCc1ccccc1)c1ccccc1 (stereo not given)
inactive: endpoint: median survival time, dose: 3.12 mg/kg/injection, schedule: Q04DX003 (ip), vehicle: saline 103 % of control | endpoint: median survival time, dose: 6.25 mg/kg/injection, schedule: Q04DX003 (ip), vehicle: saline 109 % of control | endpoint: median survival time, dose: 12.5 mg/kg/injection, schedule: Q04DX003 (ip), vehicle: saline 98 % of control | endpoint: median survival time, dose: 25.0 mg/kg/injection, schedule: Q04DX003 (ip), vehicle: saline 101 % of control | endpoint: median survival time, dose: 50.0 mg/kg/injection, schedule: Q04DX003 (ip), vehicle: saline 109 % of control | endpoint: median survival time, dose: 100.0 mg/kg/injection, schedule: Q04DX003 (ip), vehicle: saline 109 % of control | endpoint: median survival time, dose: 200.0 mg/kg/injection, schedule: Q04DX003 (ip), vehicle: saline 111 % of control

CCOC(=O)Nc1ccccc1[N+](=O)[O-]
inactive: endpoint: mean survival time, dose: 100.0 mg/kg/injection, schedule: Q04DX003 (ip), vehicle: other 98 % of control | endpoint: mean survival time, dose: 200.0 mg/kg/injection, schedule: Q04DX003 (ip), vehicle: other 102 % of control | endpoint: mean survival time, dose: 400.0 mg/kg/injection, schedule: Q04DX003 (ip), vehicle: other 98 % of control

CC(Cl)CN(CC(C)Cl)c1ccc2c(c1)Cc1cc([N+](=O)[O-])ccc1-2 (stereo not given)
inactive: [1] 93 % of control | [8] 96 % of control | [9] 96 % of control

COc1ccc(OCc2ccc(OC)c(OC)c2)cc1
inactive: [2] 91 % of control | [3] 87 % of control | [4] 91 % of control

NC(=O)/C=C/C(=O)NC(=O)Cc1ccccc1
inactive: endpoint: mean survival time, dose: 3.0 mg/kg/injection, schedule: Q01DX009 (ip), vehicle: saline with Tween-80 97 % of control | endpoint: mean survival time, dose: 6.0 mg/kg/injection, schedule: Q01DX009 (ip), vehicle: saline with Tween-80 98 % of control | endpoint: mean survival time, dose: 12.0 mg/kg/injection, schedule: Q01DX009 (ip), vehicle: saline with Tween-80 92 % of control

CCCCCC(C)(C)O
inactive: endpoint: mean survival time, dose: 100.0 mg/kg/injection, schedule: Q04DX003 (ip), vehicle: saline sonified 94 % of control | endpoint: mean survival time, dose: 200.0 mg/kg/injection, schedule: Q04DX003 (ip), vehicle: saline sonified 90 % of control | endpoint: mean survival time, dose: 400.0 mg/kg/injection, schedule: Q04DX003 (ip), vehicle: saline sonified 101 % of control

CCCCCc1cc(/C=C2/N=C(c3ccc[nH]3)C=C2OC)[nH]c1C
inactive: endpoint: mean survival time, dose: 0.25 mg/kg/injection, schedule: Q01DX009 (ip), vehicle: saline with Tween-80 92 % of control | endpoint: mean survival time, dose: 0.5 mg/kg/injection, schedule: Q01DX009 (ip), vehicle: saline with Tween-80 97 % of control | endpoint: mean survival time, dose: 1.0 mg/kg/injection, schedule: Q01DX009 (ip), vehicle: saline with Tween-80 101 % of control | endpoint: mean survival time, dose: 2.0 mg/kg/injection, schedule: Q01DX009 (ip), vehicle: saline with Tween-80 103 % of control | endpoint: mean survival time, dose: 4.0 mg/kg/injection, schedule: Q01DX009 (ip), vehicle: saline with Tween-80 92 % of control
